Data: ChEMBL document CHEMBL3881524, “Use of benzothiazepines having activity as inhibitors of ileal bile acid transport for reducing cholesterololemia” (2005)

Legend:
Assay type in all cases: functional
Mus musculus [1] = assay: Effect on plasma HDL level in LDL receptor/ApoE deficient mouse at 80 to 100 mg/kg/day mixed with R3 chow diet by FPLC method relative to untreated control
Mus musculus [2] = assay: Reduction in plasma LDL level in LDL receptor/ApoE deficient mouse at 80 to 100 mg/kg/day mixed with R3 chow diet by FPLC method relative to untreated control; parameters: scale not given: the % may be the effect or the level left
Mus musculus [3] = assay: Effect on plasma HDL level in LDL receptor/ApoE deficient mouse at 10 umol/kg/day dosed via gavage route and co-administered with 80 to 100 mg/kg/day mixed with R3 chow diet for 7 days relative to untreated control
Mus musculus [4] = assay: Reduction in plasma total cholesterol level in LDL receptor/ApoE deficient mouse at 10 umol/kg/day dosed via gavage route once daily in afternoon for first three days and in morning the last day by FPLC method relative to untreated control; parameters: scale not given: the % may be the effect or the level left
Mus musculus [5] = assay: Effect on plasma HDL level in LDL receptor/ApoE deficient mouse at 10 umol/kg/day dosed via gavage route once daily in afternoon for first three days and in morning the last day by FPLC method relative to untreated control
Mus musculus [6] = assay: Effect on plasma triglyceride level in LDL receptor/ApoE deficient mouse at 10 umol/kg/day dosed via gavage route and co-administered with 80 to 100 mg/kg/day mixed with R3 chow diet for 7 days relative to untreated control
Mus musculus [7] = assay: Reduction in plasma LDL level in LDL receptor/ApoE deficient mouse at 10 umol/kg/day dosed via gavage route and co-administered with 80 to 100 mg/kg/day mixed with R3 chow diet for 7 days relative to untreated control; parameters: scale not given: the % may be the effect or the level left
Mus musculus [8] = assay: Reduction in plasma cholesterol in LP-remnants in LDL receptor/ApoE deficient mouse at 10 umol/kg/day dosed via gavage route once daily in afternoon for first three days and in morning the last day by FPLC method relative to untreated control; parameters: scale not given: the % may be the effect or the level left
Mus musculus [9] = assay: Reduction in plasma total cholesterol level in LDL receptor/ApoE deficient mouse at […] dosed via gavage route once daily in afternoon for first three days and in morning the last day by FPLC method relative to untreated control; parameters: scale not given: the % may be the effect or the level left
Mus musculus [10] = assay: Reduction in plasma LDL level in LDL receptor/ApoE deficient mouse at […] dosed via gavage route once daily in afternoon for first three days and in morning the last day by FPLC method relative to untreated control; parameters: scale not given: the % may be the effect or the level left
Mus musculus [11] = assay: Reduction in plasma total cholesterol level in LDL receptor/ApoE deficient mouse at 0.625 umol/kg/day dosed via gavage route once daily in afternoon for first three days and in morning the last day by FPLC method relative to untreated control; parameters: scale not given: the % may be the effect or the level left
Mus musculus [12] = assay: Reduction in plasma cholesterol in LP-remnants plus LDL/HDL ratio level in LDL receptor/ApoE deficient mouse at 10 umol/kg/day dosed via gavage route and co-administered with 80 to 100 mg/kg/day mixed with R3 chow diet for 7 days relative to untreated control; parameters: scale not given: the % may be the effect or the level left
Mus musculus [13] = assay: Effect on plasma triglyceride level in LDL receptor/ApoE deficient mouse at 10 umol/kg/day dosed via gavage route once daily in afternoon for first three days and in morning the last day relative to untreated control
Mus musculus [14] = assay: Reduction in plasma cholesterol in LP-remnants plus LDL/HDL ratio level in LDL receptor/ApoE deficient mouse at 10 umol/kg/day dosed via gavage route once daily in afternoon for first three days and in morning the last day by FPLC method relative to untreated control; parameters: scale not given: the % may be the effect or the level left
Mus musculus [15] = assay: Reduction in plasma total cholesterol level in LDL receptor/ApoE deficient mouse at 10 umol/kg/day dosed via gavage route and co-administered with 80 to 100 mg/kg/day mixed with R3 chow diet for 7 days relative to untreated control; parameters: scale not given: the % may be the effect or the level left
Mus musculus [16] = assay: Reduction in plasma LDL level in LDL receptor/ApoE deficient mouse at 10 umol/kg/day dosed via gavage route once daily in afternoon for first three days and in morning the last day by FPLC method relative to untreated control; parameters: scale not given: the % may be the effect or the level left
Mus musculus [17] = assay: Reduction in plasma cholesterol in LP-remnants in LDL receptor/ApoE deficient mouse at 10 umol/kg/day dosed via gavage route and co-administered with 80 to 100 mg/kg/day mixed with R3 chow diet for 7 days relative to untreated control; parameters: scale not given: the % may be the effect or the level left

## CC(C)c1c(C(=O)Nc2ccccc2)c(-c2ccccc2)c(-c2ccc(F)cc2)n1CC[C@@H](O)C[C@@H](O)CC(=O)[O-].CC(C)c1c(C(=O)Nc2ccccc2)c(-c2ccccc2)c(-c2ccc(F)cc2)n1CC[C@@H](O)C[C@@H](O)CC(=O)[O-].[Ca+2] [ATORVASTATIN CALCIUM]
Mus musculus [1]
  Activity: 22%
Mus musculus [2]
  Activity: 43%

## CCCC[C@]1(CC)CS(=O)(=O)c2cc(O[C@@H]3O[C@H](C(=O)O)[C@@H](O)[C@H](O)[C@H]3O)ccc2[C@@H](c2ccccc2)N1
Mus musculus [3]
  Activity: 15%
Mus musculus [4]
  Activity: 35 - 42%
Mus musculus [5]
  Activity: 22 - 36%
Mus musculus [6]
  Activity: 43%
Mus musculus [7]
  Activity: 64%
Mus musculus [8]
  Activity: 54 - 62%
Mus musculus [9]
  Activity: 28%
Mus musculus [10]
  Activity: 14%
Mus musculus [11]
  Activity: 9%
Mus musculus [12]
  Activity: 71%
Mus musculus [13]
  Activity: 7 - 23%
Mus musculus [14]
  Activity: 54 - 55%
Mus musculus [15]
  Activity: 64%
Mus musculus [16]
  Activity: 20 - 29%
Mus musculus [17]
  Activity: 69%
